The conditions of data set [1]: in vivo; cited from earlier work.
The conditions of data set [2]: patients with osteoporosis; Zoledronic Acid alone, 3 patients. As to the method: In theory, co-administration of a steroid for a short duration could decrease inflammation and therefore the incidence of ONJ. […] A study comparing the incidence of PDS with Zoledronic acid with a Zoledronic Acid and steroid combination is, however, feasible and such a study has been undertaken.
Eight patients with osteoporosis were treated with Zoledronic Acid alone (3 patients) or with the combination of steroids (oral prednisone, 3, and intravenous prednisolone, 2) with Zoledronic Acid.

The conditions of data set [3]: administration of Zometa; syndrome of fever, nausea, bone pain, arthralgia, myalgia, chills; cited from earlier work.

In the case of `O=P(O)(O)C(O)(Cn1ccnc1)P(=O)(O)O` [Zoledronic Acid], in data set [1], the t1/2α is 14.4 min. Further, the “patients who suffered from PDS” value in data set [2] was “All three”. In addition, in data set [3], the “patients affected by post-dosing syndrome (PDS)” value is not above 44%.

Values taken from patent US8946199B2, “Co-administration of steroids and Zoledronic acid to prevent and treat side effects from Zoledronic acid infusion” (priority 2010, dated 2015).
